# Values quoted from earlier work in US6461650B1, “Preparation for supplementing a beverage and method for enriching a beverage in calcium and magnesium” (Institut National de la Recherche Agronomique, priority 1998, dated 2002).
# Tested on: rats
# Conditions: incorporated in the diet
substance,measurement,value
inulin,digestive assimilation of calcium and magnesium,increase the digestive assimilation of calcium and magnesium
